The subject of test [1] is MMP-1 production by monocytes. Kind of test: MMP-1 protein in monocyte conditioned media, Western blot. The class given is cell-based, human. The note with it: for effect on HMW-uPA enhancement of MMP-1 / effect on plasmin enhancement of MMP-1 / effect on LPS-induced MMP-1 production: monocytes preincubated 30 min with agent; for effect on HMW-uPA enhancement of MMP-1: then LPS plus HMW-uPA; for effect on plasmin enhancement of MMP-1: then LPS plus plasmin; for effect on LPS-induced MMP-1 production: then LPS. The source says:
Reagents. High molecular weight urokinase plasminogen activator (HMW-uPA), low molecular weight uPA (LMW-uPA), amino-terminal fragment-uPA (ATF-uPA) and α2-antiplasmin were obtained from American Diagnostica Inc. (Stamford, Conn.). […] LPS Escherichia coli 05:B55 was purchased from Sigma-Aldrich (St. Louis, Mo.). ERK1/2/phospho-ERK1/2 and p38/phospho-p38 antibodies were from Cell Signaling Technology (Beverly, Mass.). MMP-1 antibodies used were rabbit polyclonal antibodies against MMP-1 (provided by Dr. Henning Birkedal-Hansen, NIDCR/NIH) and a mouse anti-human MMP-1 monoclonal antibody (Chemicon International, Inc., Temecula, Calif.). Rabbit anti-COX-2 antibodies were obtained from Cayman Chemical Company (Ann Arbor, Mich.) and mouse anti-β-actin antibodies were from Chemicon International, Inc., Temecula, Calif.). Purification and culture of human monocytes. Human peripheral blood cells were obtained by leukapheresis of non-disease subjects. The monocyte fraction was purified by counter-flow centrifugal elutriation as previously described (Wahl et al., Cell Immunol. 85: 373-383, 1984; and Wahl et al., “In Current Protocols in Immunology,” eds. John Wiley & Sons, Inc. NY. Vol. 2: 7.6A.1-7.6A.10., 2005) and contained greater than 90% monocytes as determined by morphology and flow cytometry. Monocytes were cultured in serum-free Dulbecco Modified Eagle's Medium (DMEM; Cambrex, Walkersville, Md.) supplemented with 2 mM L-glutamine (Mediatech, Herndon, Va.) and 10 μg/ml gentamycin (Cambrex, Walkersville, Md.). Western blot analysis of MMP-1, MAPKs and COX-2. For MMP-1 determination, purified monocytes were cultured at a density of 5×10^6/ml of DMEM in 12 well polystyrene plates (Corning Incorporated Life Sciences, Lowell, Mass.). After 36 to 48 hours of treatment with reagents, the conditioned media were centrifuged and collected. Bovine serum albumin (BSA; 40 μg/ml) was added to the culture supernatants prior to the precipitation of the proteins with cold ethanol (final concentration, 60%) for at least 15 min at −70° C. The proteins were pelleted by microcentrifuging at 20,800×g for 12 min, washed with ethanol, and lyophilized by rotary evaporation. The lyophilized proteins were resuspended in sodium dodecyl sulfate (SDS)-Laemmli buffer [500 mM Tris-HCl (pH 6.8)/10% SDS/0.01% bromophenol-blue/20% glycerol], reduced with 5% β-mercaptoethanol, heated for 4 min at 100° C., and electrophoresed on a 10 or 12% Tris-glycine gel in SDS running buffer [25 mM Tris-HCl (pH 8.3)/192 mM glycine/[…]]. The proteins were transferred onto 0.45 μm nitrocellulose in a buffer containing 25 mM Tris-HCl (pH 8.3)/192 mM glycine/20% methanol and blocked with 50 mM Tris-HCl (pH 7.5)/150 mM NaCl (TBS) containing 5% nonfat dry milk for at least 1 hour. The blots were then incubated overnight with antibodies against MMP-1.
Western blots for MMP-1, MAPKs and COX-2 were incubated overnight with primary antibodies, washed and analyzed by the addition of Alexa Fluor 680 goat anti-rabbit or Alexa Fluor 750 goat anti-mouse antibodies (Molecular Probes® Inc., Eugene, Oreg.) and the infrared fluorescence detected with the Odyssey infrared imaging system (LI-COR, Lincoln, Nebr.). Densitometry analysis of the bands on the Western blots was determined with the LI-COR software analysis program or the ImageQuant software analysis program (Amersham Biosciences, Piscataway, N.J.).
(Immunoblotting shows a protein as a band on a membrane.)

The target of test [2] is T1, annexin A2 heterotetramer (annexin A2 p36 / S100A10 p11) on monocytes (Homo sapiens, UniProt P07355+P60903).
T1 construct: Purified human monocytes were fixed and permeablized; endogenous in cells; host or cells: purified human peripheral blood monocytes, fixed and permeabilized
T1 sequence (P07355 2-339 limits assumed): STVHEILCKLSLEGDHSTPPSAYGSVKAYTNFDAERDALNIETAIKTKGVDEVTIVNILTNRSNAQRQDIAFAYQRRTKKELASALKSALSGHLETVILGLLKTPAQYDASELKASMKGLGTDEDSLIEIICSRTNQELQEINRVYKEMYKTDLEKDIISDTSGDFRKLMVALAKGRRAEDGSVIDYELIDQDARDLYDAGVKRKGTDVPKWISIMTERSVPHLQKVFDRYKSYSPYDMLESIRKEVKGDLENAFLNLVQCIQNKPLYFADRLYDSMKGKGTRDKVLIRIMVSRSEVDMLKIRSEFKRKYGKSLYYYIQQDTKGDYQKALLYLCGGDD
T1 sequence (P60903 2-97 limits assumed): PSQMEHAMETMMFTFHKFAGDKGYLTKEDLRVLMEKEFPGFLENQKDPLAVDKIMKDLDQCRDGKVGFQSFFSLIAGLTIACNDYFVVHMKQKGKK
Kind of test: Binding of FITC-labeled plasmin to monocytes, flow cytometry. Particulars: preincubation of monocytes 30 min with agent before plasmin-FITC. As to the method:
(§1) Plasmin activity assay. Plasmin activity was determined with the SPECTROZYME PL kit (American Diagnostica Inc., Stamford, Conn.) which utilizes the chromogenic substrate H-D-norleucyl-hexahydrotyrosol-lysine-para-nitroanilide diacetate. For detection of cell-associated plasmin activity, monocytes were cultured at 1×10^6/well in Hanks Balanced Solution containing calcium and magnesium (Hyclone, Logan, Utah) with the plasmin substrate. Kinetic absorbance readings were measured at 405 nm. RT-PCR. Total cellular RNA was extracted with the RNeasy Mini Kit (QIAGEN® Inc., Valencia, Calif.) 8 hours after stimulation of monocytes with LPS. Transcript levels of MMP-1 were determined using semiquantitative reverse transcriptase-polymerase chain reaction (RT-PCR) with GADPH as an internal control. […] The amplified DNA was separated by 1.7% agarose gel electrophoresis, stained with SYTO 60 red fluorescent nucleic acid stain (Molecular Probes®, Eugene, Oreg.), and the intensity of the stained bands was analyzed with an infrared imaging system. […] FITC-conjugated BSA, plasmin (2.5 μg in 10 μl) or anti-human antibodies (1-2.5 μg/10 μl) then were added, respectively, incubated for 30 min and washed and analyzed by the FACSCalibur system (Becton Dickinson Biosciences, Franklin Lakes, N.J.). […] Flow cytometry results were analyzed by CELLQuest software (Becton Dickinson Biosciences, Franklin Lakes, N.J.). […]
In general terms: A flow cytometer gives signals particle by particle.

The target in the next test is T2, annexin A2 on monocytes (Homo sapiens, UniProt P07355).
T2 construct: Purified human monocytes were fixed and permeablized; endogenous in cells; host or cells: purified human peripheral blood monocytes, fixed and permeabilized
T2 sequence (P07355 whole entry): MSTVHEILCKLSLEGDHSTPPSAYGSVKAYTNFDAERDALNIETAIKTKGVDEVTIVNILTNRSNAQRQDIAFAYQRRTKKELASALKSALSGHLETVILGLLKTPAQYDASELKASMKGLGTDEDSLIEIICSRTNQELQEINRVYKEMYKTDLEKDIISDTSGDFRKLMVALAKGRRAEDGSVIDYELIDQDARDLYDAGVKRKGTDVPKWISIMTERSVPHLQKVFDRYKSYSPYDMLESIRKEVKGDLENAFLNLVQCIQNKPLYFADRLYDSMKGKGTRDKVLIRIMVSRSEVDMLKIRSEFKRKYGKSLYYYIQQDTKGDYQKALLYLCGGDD
Kind of test: Binding of goat anti-human annexin A2 antibodies to monocytes, flow cytometry. Particulars: pre-treated with agent 30 minutes; FIG. 6D. As to the method: as §1

Another test addresses T3, plasmin (Homo sapiens, UniProt P00747).
T3 construct: purchased Sigma-Aldrich
Kind of test: Cell free plasmin activity assay (SPECTROZYME PL). The class given is biochemical. The note with it: compared with plasmin alone, FIG. 6B. As to the method:
as §1

`COc1cccc(-c2cc(=O)c3ccccc3o2)c1N` [PD98059]: in test [1], the “effect on HMW-uPA enhancement of MMP-1” value is given as “suppressed the enhancement” and the “effect on plasmin enhancement of MMP-1” value is on record as “suppressed the enhancement”.
Regarding `CCCCC[C@H](O)/C=C/[C@H]1[C@H](O)CC(=O)[C@@H]1C/C=C\CCCC(=O)O` [PGE2, prostaglandin-E2], in test [1] (PGE2 1 μM added to indomethacin-treated monocytes, FIG. 4C), the “restoration of MMP-1 after indomethacin inhibition” value is “restored, in part”.
With `C[S+]([O-])c1ccc(-c2nc(-c3ccncc3)c(-c3ccc(F)cc3)[nH]2)cc1` (stereo not shown) [SB203580], in test [1], the “effect on HMW-uPA enhancement of MMP-1” value is “suppressed the enhancement” and the “effect on plasmin enhancement of MMP-1” value was “suppressed the enhancement”.
On to `COc1ccc2c(c1)c(CC(=O)O)c(C)n2C(=O)c1ccc(Cl)cc1` [indomethacin], for which, in test [1], the “effect on LPS-induced MMP-1 production” value was “inhibited”, the “effect on HMW-uPA enhancement of MMP-1” value is on record as “inhibited” and the “effect on plasmin enhancement of MMP-1” value is “inhibited”.

B1: inactive plasmin: plasmin in which the catalytic site had been irreversibly blocked with a peptide inhibitor; from Molecular Innovations, Inc. (protein)
chain: KVYLSECKTGNGKNYRGTMSKTKNGITCQKWSSTSPHRPRFSPATHPSEGLEENYCRNPDNDPQGPWCYTTDPEKRYDYCDILECEEECMHCSGENYDGKISKTMSGLECQAWDSQSPHAHGYIPSKFPNKNLKKNYCRNPDRELRPWCFTTDPNKRWELCDIPRCTTPPPSSGPTYQCLKGTGENYRGNVAVTVSGHTCQHWSAQTPHTHNRTPENFPCKNLDENYCRNPDGKRAPWCHTTNSQVRWEYCKIPSCDSSPVSTEQLAPTAPPELTPVVQDCYHGDGQSYRGTSSTTTTGKKCQSWSSMTPHRHQKTPENYPNAGLTMNYCRNPDADKGPWCFTTDPSVRWEYCNLKKCSGTEASVVAPPPVVLLPDVETPSEEDCMFGNGKGYRGKRATTVTGTPCQDWAAQEPHRHSIFTPETNPRAGLEKNYCRNPDGDVGGPWCYTTNPRKLYDYCDVPQCAAPSFDCGKPQVEPKKCPGRVVGGCVAHPHSWPWQVSLRTRFGMHFCGGTLISPEWVLTAAHCLEKSPRPSSYKVILGAHQEVNLEPHVQEIEVSRLFLEPTRKDIALLKLSSPAVITDKVIPACLPSPNYVVADRTECFITGWGETQGTFGAGLLKEAQLPVIENKVCNRYEFLNGRVQSTELCAGHLAGGTDSCQGDSGGPLVCFEKDKYILQGVTSWGLGCARPNKPGVYVRVSRFVTWIEGVMRNN
Regarding B1, the “binding of FITC-labeled plasmin to monocytes” value in test [2] was “blocked the binding”. For the same molecule, the “binding of antibodies against annexin A2 to monocytes” value with annexin A2 on monocytes is recorded as “blocked the binding”. Moreover, in test [1], the “effect on LPS-induced MMP-1 production” value is given as “inhibited the production of MMP-1” and the “effect on plasmin enhancement of MMP-1” value is on record as “inhibited the production of MMP-1”. In the test with plasmin, the “plasmin activity of inactive plasmin combined with plasmin” value is “same activity as plasmin alone”.

The values above are taken from patent US20090142330A1, “Use of inactive-plasmin to treat chronic inflammatory disease and tumors” (The Government of the United States of America as …, priority 2007, published 2009).
